Source: patent US8410112B2, “Compounds useful as inhibitors of ATR kinase” (Vertex Pharmaceuticals Incorporated, priority 2008, dated 2013)

Molecular target: T1, full-length ATR (Homo sapiens, UniProt Q13535)
T1 construct: in the presence of 5 nM full-length ATR
Test: ATR Inhibition Assay (radioactive-phosphate incorporation)
Format: biochemical
Conditions: Ki(app); 5 nM full-length ATR, 10 μM ATP, 800 μM target peptide, 25° C.
Procedure: Test compounds were screened for their ability to inhibit ATR kinase using a radioactive-phosphate incorporation assay. Assays were carried out in a mixture of 50 mM
Tris/HCl (pH 7.5), 10 mM MgCl2 and 1 mM DTT. Final substrate concentrations were 10 μM [γ-33P]ATP (3 mCi 33 P ATP/mmol ATP, Perkin Elmer) and 800 μM target peptide ([…]). Assays were carried out at 25° C. in the presence of 5 nM full-length ATR. An assay stock buffer solution was prepared containing all of the reagents listed above, with the exception of ATP and the test compound of interest. […] The plate was pre-incubated for 10 minutes at 25° C. and the reaction initiated by addition of 15 μL [γ-33P]ATP (final concentration 10 μM).
The reaction was stopped after […] by the addition of 30 μL 0.1M phosphoric acid containing 2 mM ATP. A multiscreen phosphocellulose filter 96-well plate (Millipore, Cat no. MAPHN0B50) was pretreated with 100 μL 0.2M phosphoric acid prior to the addition of 45 μL of the stopped assay mixture. The plate was washed with 5×200 μL 0.2M phosphoric acid.
After removing mean background values for all of the data points, Ki(app) data were calculated from non-linear regression analysis of the initial rate data using the Prism software package (GraphPad Prism version 3.0cx for Macintosh, GraphPad Software, San Diego Calif., USA).

T1 sequence (Q13535 whole entry): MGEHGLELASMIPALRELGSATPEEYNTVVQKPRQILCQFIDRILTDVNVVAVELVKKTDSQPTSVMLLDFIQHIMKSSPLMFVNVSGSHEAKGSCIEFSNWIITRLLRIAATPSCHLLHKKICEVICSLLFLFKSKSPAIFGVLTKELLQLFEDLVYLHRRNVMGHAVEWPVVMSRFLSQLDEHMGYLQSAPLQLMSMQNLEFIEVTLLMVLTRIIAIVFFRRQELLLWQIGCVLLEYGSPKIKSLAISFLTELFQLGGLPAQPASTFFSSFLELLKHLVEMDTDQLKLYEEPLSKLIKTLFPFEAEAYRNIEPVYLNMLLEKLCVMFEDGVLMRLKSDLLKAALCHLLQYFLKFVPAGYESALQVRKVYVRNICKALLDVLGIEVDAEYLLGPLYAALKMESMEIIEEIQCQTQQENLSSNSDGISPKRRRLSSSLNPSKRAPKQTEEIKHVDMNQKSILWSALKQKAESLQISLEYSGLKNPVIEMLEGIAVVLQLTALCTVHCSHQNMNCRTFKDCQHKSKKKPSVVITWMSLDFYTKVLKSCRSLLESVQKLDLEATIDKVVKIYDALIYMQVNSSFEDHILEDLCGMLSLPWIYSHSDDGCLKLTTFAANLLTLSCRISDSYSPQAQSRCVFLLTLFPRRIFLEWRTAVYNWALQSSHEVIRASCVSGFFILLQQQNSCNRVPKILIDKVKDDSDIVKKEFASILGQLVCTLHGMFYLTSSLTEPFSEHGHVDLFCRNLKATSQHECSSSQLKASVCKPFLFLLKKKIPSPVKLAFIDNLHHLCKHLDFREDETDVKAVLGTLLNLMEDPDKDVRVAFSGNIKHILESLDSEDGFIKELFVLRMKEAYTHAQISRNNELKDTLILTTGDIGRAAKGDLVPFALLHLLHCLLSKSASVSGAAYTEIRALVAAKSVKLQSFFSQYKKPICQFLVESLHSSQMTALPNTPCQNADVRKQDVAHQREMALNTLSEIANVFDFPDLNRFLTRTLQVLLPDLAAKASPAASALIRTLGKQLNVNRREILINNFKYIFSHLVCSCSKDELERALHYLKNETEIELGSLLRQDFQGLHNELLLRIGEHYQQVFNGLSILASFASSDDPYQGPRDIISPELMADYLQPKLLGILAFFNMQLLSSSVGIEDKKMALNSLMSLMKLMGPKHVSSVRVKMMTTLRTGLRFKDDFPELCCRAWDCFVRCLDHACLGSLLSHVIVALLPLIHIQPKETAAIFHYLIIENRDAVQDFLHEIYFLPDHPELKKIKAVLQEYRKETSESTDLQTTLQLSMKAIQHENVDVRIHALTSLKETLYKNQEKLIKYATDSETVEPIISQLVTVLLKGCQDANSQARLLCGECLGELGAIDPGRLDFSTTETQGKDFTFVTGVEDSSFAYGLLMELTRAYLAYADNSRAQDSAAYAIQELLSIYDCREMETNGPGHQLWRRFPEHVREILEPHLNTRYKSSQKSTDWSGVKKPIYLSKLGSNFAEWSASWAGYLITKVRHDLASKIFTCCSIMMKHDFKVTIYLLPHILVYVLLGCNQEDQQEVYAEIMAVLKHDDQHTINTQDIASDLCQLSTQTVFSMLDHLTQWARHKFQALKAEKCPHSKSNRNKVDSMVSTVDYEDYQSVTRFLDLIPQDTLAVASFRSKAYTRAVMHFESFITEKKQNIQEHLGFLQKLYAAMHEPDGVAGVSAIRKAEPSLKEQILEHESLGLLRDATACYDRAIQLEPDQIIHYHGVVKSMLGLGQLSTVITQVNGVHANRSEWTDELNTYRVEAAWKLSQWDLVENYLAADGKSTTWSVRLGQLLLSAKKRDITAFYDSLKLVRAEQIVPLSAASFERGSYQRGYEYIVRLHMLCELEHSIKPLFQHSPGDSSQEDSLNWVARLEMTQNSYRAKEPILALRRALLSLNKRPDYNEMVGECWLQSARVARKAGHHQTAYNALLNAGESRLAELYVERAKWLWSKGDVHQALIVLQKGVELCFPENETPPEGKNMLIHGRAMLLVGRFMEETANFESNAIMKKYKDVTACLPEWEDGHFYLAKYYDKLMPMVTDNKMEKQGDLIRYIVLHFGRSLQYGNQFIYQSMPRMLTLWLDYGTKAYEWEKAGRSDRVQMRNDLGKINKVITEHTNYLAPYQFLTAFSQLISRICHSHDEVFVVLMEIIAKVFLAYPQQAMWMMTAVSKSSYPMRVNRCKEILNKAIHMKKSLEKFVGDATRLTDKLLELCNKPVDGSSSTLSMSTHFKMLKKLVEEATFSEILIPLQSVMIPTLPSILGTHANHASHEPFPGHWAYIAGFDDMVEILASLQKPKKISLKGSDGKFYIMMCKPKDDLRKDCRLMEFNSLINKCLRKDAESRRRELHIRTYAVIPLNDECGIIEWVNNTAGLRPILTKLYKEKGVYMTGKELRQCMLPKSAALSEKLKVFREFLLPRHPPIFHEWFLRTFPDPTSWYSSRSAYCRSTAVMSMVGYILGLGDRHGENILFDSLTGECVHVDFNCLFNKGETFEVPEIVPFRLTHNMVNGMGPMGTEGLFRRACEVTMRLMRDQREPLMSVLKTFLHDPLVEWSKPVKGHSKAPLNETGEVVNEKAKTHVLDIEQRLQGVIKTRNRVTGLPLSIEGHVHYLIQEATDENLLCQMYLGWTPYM

| Ki | SMILES |
| --- | --- |
| < 100 nM | CCS(=O)(=O)N1CCN(c2cnc(N)c(-c3nnc(-c4sccc4C)o3)n2)CC1 [Compound I-294, 5-(4-ethylsulfonylpiperazin-1-yl)-3-[5-(3-methyl-2-thienyl)-1,3,4-oxadiazol-2-yl]pyrazin-2-amine] |
| 100 to 1000 nM | CCC(=O)N1CCN(c2cnc(N)c(-c3nnc(-c4ccc(CNC)cc4)o3)n2)C[C@H]1C(C)C [Compound I-333, 1-[(2R)-4-[5-Amino-6-[5-[4-(methylaminomethyl)phenyl]-1,3,4-oxadiazol-2-yl]pyrazin-2-yl]-2-isopropyl-piperazin-1-yl]propan-1-one] |
| 100 to 1000 nM | CNCc1ccc(-c2nnc(-c3nc(N4C[C@@H]5C(C(=O)N(C)C)[C@@H]5C4)cnc3N)o2)cc1 (stereo partly drawn) [Compound I-351, (1R,5S)-3-[5-Amino-6-[5-[4-(methylaminomethyl)phenyl]-1,3,4-oxadiazol-2-yl]pyrazin-2-yl]-N,N-dimethyl-3-azabicyclo[3.1.0]hexane-6-carboxamide] |
| < 100 nM | Nc1ncc(C2=CCN(S(=O)(=O)c3cccs3)CC2)nc1-c1nnc(-c2ccccc2)o1 [Compound I-245, 3-(5-phenyl-1,3,4-oxadiazol-2-yl)-5-(1-(thiophen-2-ylsulfonyl)-1,2,3,6-tetrahydropyridin-4-yl)pyrazin-2-amine] |
| 1000 to 10000 nM | CC(C)C(=O)N1CCN(c2cnc(N)c(-c3nc4ccccc4[nH]3)n2)CC1 [Compound I-199, 1-(4-(5-amino-6-(1H-benzo[d]imidazol-2-yl)pyrazin-2-yl)piperazin-1-yl)-2-methylpropan-1-one] |
| 100 to 1000 nM | Nc1ncc(C2=CCN(C(=O)c3cccnc3)CC2)nc1-c1nc2ccccc2[nH]1 [Compound I-191] |
| 100 to 1000 nM | CCS(=O)(=O)N1CCN(c2cnc(N)c(-c3nc4ccc(C)cc4[nH]3)n2)CC1 [Compound I-6, 5-(4-(ethylsulfonyl)piperazin-1-yl)-3-(6-methyl-1H-benzo[d]imidazol-2-yl)pyrazin-2-amine] |
| 1000 to 10000 nM | Cc1cccc(C)c1C(=O)N1CCN(c2cnc(N)c(-c3nc4ccccc4[nH]3)n2)CC1 [Compound I-275, (4-(5-amino-6-(1H-benzo[d]imidazol-2-yl)pyrazin-2-yl)piperazin-1-yl)(2,6-dimethylphenyl)methanone] |
| 100 to 1000 nM | CCS(=O)(=O)N1CC=C(c2cnc(N)c(C(=O)Nc3ccccn3)n2)CC1 [Compound I-171, 3-amino-6-(1-(ethylsulfonyl)-1,2,3,6-tetrahydropyridin-4-yl)-N-(pyridin-2-yl)pyrazine-2-carboxamide] |
| 100 to 1000 nM | Nc1ncc(N2CCN(S(=O)(=O)c3ccsc3)CC2)nc1-c1nc2ccccc2[nH]1 [Compound I-80, 3-(1H-benzo[d]imidazol-2-yl)-5-(4-(thiophen-3-ylsulfonyl)piperazin-1-yl)pyrazin-2-amine] |
| 1000 to 10000 nM | Cc1ccc2nc(-c3nc(N4CCC(O)CC4)cnc3N)[nH]c2c1 [Compound I-5, 1-(5-amino-6-(6-methyl-1H-benzo[d]imidazol-2-yl)pyrazin-2-yl)piperidin-4-ol] |
| 1000 to 10000 nM | Nc1ncc(N2CCN(Cc3ccccc3)CC2)nc1-c1nnc(-c2ccccc2)o1 [Compound I-300, 5-(4-benzylpiperazin-1-yl)-3-(5-phenyl-1,3,4-oxadiazol-2-yl)pyrazin-2-amine] |
| 100 to 1000 nM | CNCc1ccc(-c2nnc(-c3nc(N4CCC[C@@H]4C)cnc3N)o2)cc1 [Compound I-361, 3-[5-[4-(Methylaminomethyl)phenyl]-1,3,4-oxadiazol-2-yl]-5-[(2S)-2-methylpyrrolidin-1-yl]pyrazin-2-amine] |
| 1000 to 10000 nM | CNCc1ccc(-c2nnc(-c3nc(N4Cc5ccccc5C4)cnc3N)o2)cc1 [Compound I-321, 5-Isoindolin-2-yl-3-[5-[4-(methylaminomethyl)phenyl]-1,3,4-oxadiazol-2-yl]pyrazin-2-amine] |
| 100 to 1000 nM | COCCOCC(=O)N1CC=C(c2cnc(N)c(-c3nc4ccccc4[nH]3)n2)CC1 [Compound I-140, 1-(4-(5-amino-6-(1H-benzo[d]imidazol-2-yl)pyrazin-2-yl)-5,6-dihydropyridin-1(2H)-yl)-2-(2-methoxyethoxy)ethanone] |
| 1000 to 10000 nM | Nc1ncc(N2CCN(C(=O)COc3ccccc3)CC2)nc1-c1nc2ccccc2[nH]1 [Compound I-273, 1-(4-(5-amino-6-(1H-benzo[d]imidazol-2-yl)pyrazin-2-yl)piperazin-1-yl)-2-phenoxyethanone] |
| 100 to 1000 nM | CCC(=O)N1CC=C(c2cnc(N)c(-c3nnc(-c4ccc(CNC)cc4)o3)n2)CC1 [Compound I-335, 1-[4-[5-Amino-6-[5-[4-(methylaminomethyl)phenyl]-1,3,4-oxadiazol-2-yl]pyrazin-2-yl]-3,6-dihydro-2H-pyridin-1-yl]propan-1-one] |

| Ki | SMILES |
| --- | --- |
| 100 to 1000 nM | Nc1ncc(N2CCN(C(=O)c3c(F)cccc3F)CC2)nc1-c1nc2ccccc2[nH]1 [Compound I-177, (4-(5-amino-6-(1H-benzo[d]imidazol-2-yl)pyrazin-2-yl)piperazin-1-yl)(2,6-difluorophenyl)methanone] |
| 1000 to 10000 nM | Cc1ccc2nc(-c3nc(N4CCN(c5ncccc5C(F)(F)F)CC4)cnc3N)[nH]c2c1 [Compound I-52, 3-(6-methyl-1H-benzo[d]imidazol-2-yl)-5-(4-(3-(trifluoromethyl)pyridin-2-yl)piperazin-1-yl)pyrazin-2-amine] |
| 100 to 1000 nM | CC(=O)NC1CCN(c2cnc(N)c(-c3nc4ccc(C)cc4[nH]3)n2)CC1 [Compound I-43, N-(1-(5-amino-6-(6-methyl-1H-benzo[d]imidazol-2-yl)pyrazin-2-yl)piperidin-4-yl)ethanamide] |
| 1000 to 10000 nM | COC1CCN(c2cnc(N)c(-c3nc4ccc(C)cc4[nH]3)n2)CC1 [Compound I-12, 5-(4-methoxypiperidin-1-yl)-3-(6-methyl-1H-benzo[d]imidazol-2-yl)pyrazin-2-amine] |
| < 100 nM | CCC(=O)N1CC=C(c2cnc(N)c(-c3nnc(-c4ccccc4)o3)n2)CC1 [Compound I-301, 1-[4-[5-amino-6-(5-phenyl-1,3,4-oxadiazol-2-yl)pyrazin-2-yl]-3,6-dihydro-2H-pyridin-1-yl]propan-1-one] |
| < 100 nM | Nc1ncc(C2=CCN(C(=O)C3CCC3)CC2)nc1-c1nnc(-c2ccccc2)o1 [Compound I-128, (4-(5-amino-6-(5-phenyl-1,3,4-oxadiazol-2-yl)pyrazin-2-yl)-5,6-dihydropyridin-1(2H)-yl)(cyclobutyl)methanone] |
| 100 to 1000 nM | CN(C)[C@@H]1CCN(C(=O)N2CC=C(c3cnc(N)c(-c4nc5ccccc5[nH]4)n3)CC2)C1 [Compound I-278, (R)-(4-(5-amino-6-(1H-benzo[d]imidazol-2-yl)pyrazin-2-yl)-5,6-dihydropyridin-1(2H)-yl)(3-(dimethylamino)pyrrolidin-1-yl)methanone] |
| 100 to 1000 nM | CN(C)CC(=O)N1CC=C(c2cnc(N)c(-c3nnc(-c4ccccc4)o3)n2)CC1 [Compound I-134, 1-(4-(5-amino-6-(5-phenyl-1,3,4-oxadiazol-2-yl)pyrazin-2-yl)-5,6-dihydropyridin-1(2H)-yl)-2-(dimethylamino)ethanone] |
| 1000 to 10000 nM | CC(=O)NC1CN(c2cnc(N)c(-c3nnc(-c4ccccc4)o3)n2)C1 [Compound I-282, N-(1-(5-amino-6-(5-phenyl-1,3,4-oxadiazol-2-yl)pyrazin-2-yl)azetidin-3-yl)ethanamide] |
| 1000 to 10000 nM | CCS(=O)(=O)N1CCN(c2cnc(N)c(-c3cc4ccccc4[nH]3)n2)CC1 [Compound I-61, 5-(4-(ethylsulfonyl)piperazin-1-yl)-3-(1H-indol-2-yl)pyrazin-2-amine] |
| 100 to 1000 nM | CCS(=O)(=O)N1CC=C(c2cnc(N)c(-c3nnc(-c4ccc(CNC)cc4)o3)n2)CC1 [Compound I-339, 5-(1-Ethylsulfonyl-3,6-dihydro-2H-pyridin-4-yl)-3-[5-[4-(methylaminomethyl)phenyl]-1,3,4-oxadiazol-2-yl]pyrazin-2-amine] |
| 100 to 1000 nM | Nc1ncc(N2CCN(C(=O)C3CCCCC3)CC2)nc1C(=O)Nc1ccccn1 [Compound I-256, 3-amino-6-(4-(cyclohexanecarbonyl)piperazin-1-yl)-N-(pyridin-2-yl)pyrazine-2-carboxamide] |
| 1000 to 10000 nM | CN(C)S(=O)(=O)N[C@H]1CCN(c2cnc(N)c(-c3nc4ccccc4[nH]3)n2)C1 [Compound I-85, (S)-N-(1-(5-amino-6-(1H-benzo[d]imidazol-2-yl)pyrazin-2-yl)pyrrolidin-3-yl)propane-2-N,N-dimethylsulfamide] |
| 100 to 1000 nM | Nc1ncc(N2CCN(C(=O)N3CCOCC3)CC2)nc1-c1nnc(-c2ccccc2)o1 [Compound I-216, (4-(5-amino-6-(5-phenyl-1,3,4-oxadiazol-2-yl)pyrazin-2-yl)piperazin-1-yl)(morpholino)methanone] |
| < 100 nM | Nc1ncc(-n2ccccc2=O)nc1-c1nc2ccccc2[nH]1 [Compound I-310, 1-(5-amino-6-(1H-benzo[d]imidazol-2-yl)pyrazin-2-yl)pyridin-2(1H)-one] |
| 100 to 1000 nM | CCS(=O)(=O)N1CCN(c2cnc(N)c(-c3nnc(-c4ccc(CNC)cc4)o3)n2)CC1(C)C [Compound I-328, 5-(4-Ethylsulfonyl-3,3-dimethyl-piperazin-1-yl)-3-[5-[4-(methylaminomethyl)phenyl]-1,3,4-oxadiazol-2-yl]pyrazin-2-amine] |
